Results on one compound are retold here after patent US20220259235A1, “EGFR Inhibitor, Composition, and Preparation Method Therefor” (BETTA PHARMACEUTICALS CO., LTD, priority 2019, published 2022).

The test system of experiment [1] is A431 EGFR wild-type cell line. The experiment in a line: A431 EGFR wild-type cell proliferation assay (CellTiter Glo, 72 h). It counts as cell-based. Particulars: Homo sapiens, A-431, CTG, read-out: A431 EGFR WT IC50. The method, then:
Cell line: Ba/F3 cells with stable overexpression of Δ19del/T790M/C797S or L858R/T790M/C797S mutant genes, named Ba/F3-Δ19del/T790M/C797S and Ba/F3-L858R/T790M/C797S, and A431 EGFR wild-type cell line.
RPMI 1640 and 10% FBS and 1% PS; _EM, 10% PBS and 1% PS
a) Dilute the test compound (20 mM stock solution) to 10 mM with 100% DMSO as the starting concentration, and then serially dilute 3 times with a “9+0” concentration in 96-well dilution plate (Cat #P-05525, Labcyte);
b) Dilute compound solution thereof to 1:100 in medium to prepare 10-fold working solution;
a) Centrifuge the growth cells in logarithmic phase at 1000 rpm for 5 minutes, resuspend the cells in culture medium, and then count the cells;
b) Inoculate the cells into a 96-well cell culture plate with a density of 2000 cells/well;
a) The compound prepared in Step 2 was added to a cell plate with 15 μL per well at final concentrations of 1000, 333, 111.1, 37, 12.3, 4.1, 1.4, 0.5, 0.2, and 0 nM. The final concentration of DMSO was 0.1%. The blank control well is with medium (0.1% DMSO).
b) Incubate cells in an incubatorother 72 hours;
a) Take out the 96-well cell culture plate and add 50 μl CTG reagent (CellTiter Glo kit, promega, Cat #G7573);
b) Shake the plate for 2 minutes and let cool at room temperature for 10 minutes,
c) Read luminous signal value with Perkin Elmer reader.
Analysis of Experimental Data
The data were analyzed by GraphPad Prism 6.0 software to obtain the fitting curve of compound activity.
Fining compound IC50 from nonlinear regression equation:
Y=Min+(Max−Min)/(1+10^((LogIC50−X)*slope));
X: Logarithm of compound concentration; Y: luminous signal
As illustrated in examples, IC50 value is within the following range for the compound of the present invention: “A” represents “IC50≤50 nM”; “B” represents “50 nM<IC50<100 nM”.

The target of another experiment is Ba/F3-L858R/T790M/C797S (Homo sapiens, UniProt P00533, T790M/C797S/L858R, cells depend on it). The experiment in a line: Ba/F3-L858R/T790M/C797S cell proliferation assay (CellTiter Glo, 72 h). The experiment is classed as cell-based. Particulars: CTG, numeric values, read-out: BaF3 L858R/T790M/C797S IC50. In a few lines:
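Cells seeded at 2000/well and exposed 72 h to compound at 1000 to 0.2 nM (0.1% DMSO). Viability read by CellTiter-Glo luminescence; IC50 from four-parameter nonlinear regression of signal vs. log concentration.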

In a further experiment the target is EGFR Δ19del/T790M/C797S (Homo sapiens, UniProt P00533, T790M/C797S, form not given). The experiment in a line: EGFR Δ19del/T790M/C797S kinase test (mobility shift, Caliper EZ Reader). The experiment is classed as biochemical. Particulars: kinase enzymatic activity, numeric values. The procedure, abridged:
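Mobility-shift assay in which kinase was preincubated 10 min at room temperature with a 10-point, 3-fold compound series starting at 3000 nM or 100 nM. ATP plus substrate then started the reaction at room temperature, and conversion was read on Caliper EZ Reader. IC50 came from a variable-slope fit of % inhibition against positive and negative controls.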

Chain of EGFR Δ19del/T790M/C797S (P00533 with tags, fused parts or gaps DEL746-750/T790M/C797S, form open): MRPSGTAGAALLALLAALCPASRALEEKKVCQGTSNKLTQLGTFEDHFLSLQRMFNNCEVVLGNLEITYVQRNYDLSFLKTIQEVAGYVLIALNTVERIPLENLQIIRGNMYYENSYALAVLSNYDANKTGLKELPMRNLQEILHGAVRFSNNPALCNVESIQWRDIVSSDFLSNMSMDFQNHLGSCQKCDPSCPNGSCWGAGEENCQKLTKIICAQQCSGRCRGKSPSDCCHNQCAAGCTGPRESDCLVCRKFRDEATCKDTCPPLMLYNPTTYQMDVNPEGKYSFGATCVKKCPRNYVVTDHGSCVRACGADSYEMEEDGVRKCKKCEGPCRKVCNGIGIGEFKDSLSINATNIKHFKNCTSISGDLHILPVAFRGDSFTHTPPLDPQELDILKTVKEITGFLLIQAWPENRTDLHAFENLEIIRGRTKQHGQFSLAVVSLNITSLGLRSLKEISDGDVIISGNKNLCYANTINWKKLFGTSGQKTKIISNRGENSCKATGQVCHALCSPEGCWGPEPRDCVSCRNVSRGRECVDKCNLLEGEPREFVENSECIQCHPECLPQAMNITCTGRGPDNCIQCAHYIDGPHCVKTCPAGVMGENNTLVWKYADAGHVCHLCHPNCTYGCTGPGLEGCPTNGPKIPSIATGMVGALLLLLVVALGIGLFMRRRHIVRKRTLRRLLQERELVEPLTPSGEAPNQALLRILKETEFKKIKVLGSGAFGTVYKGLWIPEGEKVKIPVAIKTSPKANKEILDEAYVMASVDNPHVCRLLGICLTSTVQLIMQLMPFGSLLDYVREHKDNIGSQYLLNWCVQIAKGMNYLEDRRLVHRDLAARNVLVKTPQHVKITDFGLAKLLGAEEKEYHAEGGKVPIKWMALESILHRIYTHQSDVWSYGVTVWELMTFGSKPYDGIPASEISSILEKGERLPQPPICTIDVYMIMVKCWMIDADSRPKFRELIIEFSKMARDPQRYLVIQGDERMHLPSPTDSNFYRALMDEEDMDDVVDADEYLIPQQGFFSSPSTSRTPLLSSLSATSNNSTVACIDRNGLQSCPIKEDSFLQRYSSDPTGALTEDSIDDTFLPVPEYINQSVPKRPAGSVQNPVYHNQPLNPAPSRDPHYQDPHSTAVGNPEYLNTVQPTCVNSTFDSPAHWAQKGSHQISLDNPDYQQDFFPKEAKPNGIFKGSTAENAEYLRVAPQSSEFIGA
Chain of Ba/F3-L858R/T790M/C797S (P00533 whole entry T790M/C797S/L858R): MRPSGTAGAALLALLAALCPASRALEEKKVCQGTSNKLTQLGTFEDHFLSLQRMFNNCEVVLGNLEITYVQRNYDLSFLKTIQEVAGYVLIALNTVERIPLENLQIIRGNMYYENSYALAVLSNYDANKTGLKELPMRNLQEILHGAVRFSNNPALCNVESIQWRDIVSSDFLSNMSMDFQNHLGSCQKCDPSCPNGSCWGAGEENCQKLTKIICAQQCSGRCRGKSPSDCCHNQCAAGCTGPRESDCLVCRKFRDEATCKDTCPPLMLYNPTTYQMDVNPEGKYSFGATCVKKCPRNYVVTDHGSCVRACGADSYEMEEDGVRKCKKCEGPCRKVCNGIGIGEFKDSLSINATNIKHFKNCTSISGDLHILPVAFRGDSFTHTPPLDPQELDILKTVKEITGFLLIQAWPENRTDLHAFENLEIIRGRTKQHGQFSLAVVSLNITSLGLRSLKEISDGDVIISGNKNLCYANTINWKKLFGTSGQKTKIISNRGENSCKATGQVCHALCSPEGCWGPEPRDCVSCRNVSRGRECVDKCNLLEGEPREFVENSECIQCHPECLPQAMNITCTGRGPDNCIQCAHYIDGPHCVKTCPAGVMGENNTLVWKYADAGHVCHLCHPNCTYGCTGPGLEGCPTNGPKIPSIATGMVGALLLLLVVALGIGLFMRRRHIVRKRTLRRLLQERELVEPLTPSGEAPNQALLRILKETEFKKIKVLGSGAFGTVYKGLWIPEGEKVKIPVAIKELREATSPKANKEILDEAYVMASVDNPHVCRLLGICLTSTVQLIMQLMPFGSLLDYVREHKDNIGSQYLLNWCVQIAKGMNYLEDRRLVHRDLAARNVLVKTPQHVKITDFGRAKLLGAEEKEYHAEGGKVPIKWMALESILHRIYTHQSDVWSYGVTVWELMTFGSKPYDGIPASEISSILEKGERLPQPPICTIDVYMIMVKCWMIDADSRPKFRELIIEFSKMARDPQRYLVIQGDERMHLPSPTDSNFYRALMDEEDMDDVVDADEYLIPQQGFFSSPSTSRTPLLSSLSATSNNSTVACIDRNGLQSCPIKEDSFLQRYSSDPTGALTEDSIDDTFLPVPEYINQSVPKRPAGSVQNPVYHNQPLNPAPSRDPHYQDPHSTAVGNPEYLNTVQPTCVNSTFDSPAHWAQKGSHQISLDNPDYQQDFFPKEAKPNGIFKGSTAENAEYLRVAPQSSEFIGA

In the case of `COc1cc(N2CCC(N3CCN(C)CC3)CC2)c(-c2cnn(C)c2)cc1Nc1ncc(Cl)c(Nc2ccc3nccnc3c2P(C)(C)=O)n1` [Compound 1, (6-((5-Chloro-2-((2-methoxy-5-(1-methyl-1hydro-pyrazol-4-yl)-4-(4-(4-methylpiperazine-1-yl)piperidin-1-yl)phenyl)amino)pyrimidin-4-yl)amino)quinoxalin-5-yl)dimethylphosphine oxide], the 50% inhibitory concentration (IC50) in experiment [1] is 112 nM; at EGFR Δ19del/T790M/C797S it was 0.3 nM. Moreover, the GI50 at Ba/F3-L858R/T790M/C797S turned out to be 2.1 nM.
